Reference: patent US20250027958A1, “DIAGNOSTIC AND THERAPEUTIC METHODS USING HEME AS A BIOMARKER FOR CELLULAR AND TISSUE DAMAGE” (Beth Israel Deaconess Medical Center, Inc., priority 2021, published 2025)
Entries after “also recorded” stand apart in the source; their conditions may differ.

Tested on: male C57BL/6 mice
Settings: DOX 20 mg/kg i.p., blood collected 1 hr later
Protocol: In brief, for the assessment of acute cytotoxicity, male C57BL/6 mice (10-12 weeks old) are administered HBI-002 (10 ml/kg, per os) or a control vehicle (10ml/kg, per os) at 0 hr and 1 hr, followed by administration of doxorubicin at 1.25 hr (20 mg/kg, intraperitoneal injection) and blood and tissue collection at 2.25 hr.
Male C57BL/6 mice (10-12 weeks old) were administered HBI-002 (10 ml/kg, per os) or a control vehicle (10 ml/kg, per os) at 0 hr and 1 hr, followed by administration of DOX at 1.25 hr (20 mg/kg, intraperitoneal injection) and blood and tissue collection at 2.25 hr (FIG. 1).

COc1cccc2c1C(=O)c1c(O)c3c(c(O)c1C2=O)C[C@@](O)(C(=O)CO)C[C@@H]3O[C@H]1C[C@H](N)[C@H](O)[C@H](C)O1 [DOX, Doxorubicin]
serum heme upon administration of DOX: significant increases in heme levels; also recorded: significant increase in serum heme
